Measured values as given in patent US12697325B2 (TENNOR THERAPEUTICS (SUZHOU) LIMITED, priority 2021, dated 2026).
Read-outs that look alike come from different tables or passages of the source.

Assays:
[1] = Stability of sulbactam sodium and avibactam sodium in different pH buffers (HPLC purity); type: physicochemical; settings: 20° C., 24 h; for Purity in pH buffer (monomer): purity 100% at 0 h, alone; for Purity in pH buffer (in mixture): mixture 4:1 (sulbactam sodium 1 mg/mL, avibactam sodium 0.25 mg/mL)
[2] = test system: Acinetobacter baumannii strains; experiment: Minimum inhibitory concentration (CLSI M07), Example 2, 20 strains; type: cell-based
[3] = cited from earlier work
[4] = Pharmacokinetics in plasma and bronchoalveolar lavage fluid of female CD-1 mice; type: in vivo; settings: female, CD-1, mouse
Protocol: An appropriate amount of the test drug was accurately weighed and mixed with the appropriate volume of vehicle (5% DMSO+0.5% Tween 80 in normal saline) to obtain a clear solution for the test in Table 9. The formulation solution for injection was prepared to sterile filtration through a 0.22 μm filter prior to administration. The mice were dosed with the drug within 30 min after the formulated solution for injection was prepared. A 1.5 mL of the formulation solution for injection was transferred into a polypropylene microcentrifuge tube for dose verification by LC/UV or LC-MS/MS.
All blood samples were transferred to pre-frozen EDTA-K2 tubes and placed on wet ice until centrifugation. […]
Plasma: approximately 100 μL of blood sample was transferred into pre-cooled commercial EDTA-K2 tubes and placed on wet ice until centrifugation. After the blood samples were centrifuged at approximately 4° C. and 3, 200 g for 10 min, plasma was collected and transferred to pre-labeled 96-well plates or polypropylene tubes, flash frozen on dry ice, and stored at ≤−60° C. until the analysis by LC-MS/MS.
Serum: approximately 100 μL of blood sample was transferred into a tube without anticoagulant and placed on wet ice for approximately 30 min and centrifuged at 4° C. and 3,000 g for 10 min, and the serum was collected and transferred into pre-labeled PP tubes placed on wet ice. After the completion of all the collections, serum samples were stored at −60° C. until being sent to the animal experimental team to determine urea concentration.
Bronchoalveolar lavage fluid (BALF): pre-cooled tracheo-alveolar lavage fluid was injected into the trachea or predefined bronchi. After a full expansion of the lung tissue, the lavage fluid was slowly drawn out with a syringe 30 s later. The lung was lavaged three times. During the last lavage, the lung tissue was gently squeezed to restore the fluid. To prevent contamination of other lung tissues, the corresponding bronchi were ligated. Both lungs of the mice were perfused with 0.8 mL.
[…] Approximately 200 μL of the BALF samples were transferred into a polypropylene tube, rapidly frozen on dry ice, maintained at ≤−60° C., and sent to the animal experimental team to determine urea concentration. The remaining BALF samples (approximately 600 μL) were rapidly frozen on dry ice and maintained at ≤−60° C. until being submitted for drug concentration analysis by LC-MS/MS.

NC(=O)[C@@H]1CC[C@@H]2CN1C(=O)N2OS(=O)(=O)O [Avibactam, [(2S,5R)-2-carbamoyl-7-oxo-1,6-diazabicyclo [3.2.1]oct-6-yl] bisulfate]
Purity in pH buffer (monomer) ([1]; pH 4.0 buffer): −24.20% | Purity in pH buffer (in mixture) ([1]; pH 4.0 buffer): −23.74% | Purity in pH buffer (monomer) ([1]; pH 4.5 buffer): −2.31% | Purity in pH buffer (in mixture) ([1]; pH 4.5 buffer): −1.42% | Purity in pH buffer (monomer) ([1]; pH 5.0 buffer): −0.71% | Purity in pH buffer (in mixture) ([1]; pH 5.0 buffer): −0.99% | Purity in pH buffer (monomer) ([1]; pH 5.5 buffer): −0.77% | Purity in pH buffer (in mixture) ([1]; pH 5.5 buffer): −0.54% | Purity in pH buffer (monomer) ([1]; pH 6.0 buffer): −1.75% | Purity in pH buffer (in mixture) ([1]; pH 6.0 buffer): −1.76% | Purity in pH buffer (monomer) ([1]; pH 7.3 buffer): −0.81% | Purity in pH buffer (in mixture) ([1]; pH 7.3 buffer): −1.06% | Purity in pH buffer (monomer) ([1]; pH 8.0 buffer): −8.87% | Purity in pH buffer (in mixture) ([1]; pH 8.0 buffer): −8.81% | MIC of the strain BAA-1795 (component in the combination) ([2]; strain BAA-1795, sulbactam/avibactam 4:1, concentration of the named component): 2 µg/mL | MIC90 of the single component in the combination ([2]; sulbactam sodium:avibactam sodium = 4:1, concentration of the named component): 4 µg/mL | MIC50 of the single component in the combination ([2]; sulbactam sodium:avibactam sodium = 4:1, concentration of the named component, Examples 1 and 2): 2 µg/mL | Protein binding [3]: ~8% | Kp at 0.5 h ([4]; BALF/plasma, intravenous, 25 mg/kg, 0.50 h, read-out: BALF/plasma ratio Mean): 0.0474 | Kp at 3 h ([4]; BALF/plasma, intravenous, 150 mg/kg, 3.00 h, read-out: BALF/plasma ratio Mean): 0.0319 | Kp at 5 h ([4]; BALF/plasma, intravenous, 150 mg/kg, 5.00 h, read-out: BALF/plasma ratio Mean): 0.153 | Kp at 8 h ([4]; BALF/plasma, intravenous, 150 mg/kg, 8.00 h, read-out: BALF/plasma ratio Mean): 0.211 | concentration at 0.5 h ([4]; ELF, intravenous, 0.50 h, group 01 (25 mg/kg per Table 9), read-out: ELF concentration Mean ± SD): 5400 ± 2390 ng/mL | concentration at 3 h ([4]; ELF, intravenous, 3.00 h, 150 mg/kg, read-out: ELF concentration Mean ± SD): 4730 ± 2410 ng/mL | concentration at 5 h ([4]; ELF, intravenous, 5.00 h, 150 mg/kg, read-out: ELF concentration Mean ± SD): 129 ± 75.2 ng/mL | concentration at 8 h ([4]; ELF, intravenous, 8.00 h, 150 mg/kg, read-out: ELF concentration Mean ± SD): 22.2 ng/mL | concentration at 0.5 h ([4]; bronchoalveolar lavage fluid (BALF), intravenous, 0.50 h, group 01 (25 mg/kg per Table 9), read-out: BALF concentration Mean ± SD): 849 ± 210 ng/mL | concentration at 3 h ([4]; bronchoalveolar lavage fluid (BALF), intravenous, 3.00 h, 150 mg/kg, read-out: BALF concentration Mean ± SD): 626 ± 459 ng/mL | concentration at 5 h ([4]; bronchoalveolar lavage fluid (BALF), intravenous, 5.00 h, 150 mg/kg, read-out: BALF concentration Mean ± SD): 19 ± 11.6 ng/mL | concentration at 8 h ([4]; bronchoalveolar lavage fluid (BALF), intravenous, 8.00 h, 150 mg/kg, read-out: BALF concentration Mean ± SD): 5.37 ng/mL | concentration at 0.25 h ([4]; plasma, 0.25 h, group 01 (25 mg/kg per Table 9), intravenous dripping, read-out: Plasma concentration Mean ± SD): 16500 ± 2260 ng/mL | concentration at 0.5 h ([4]; plasma, 0.50 h, group 01 (25 mg/kg per Table 9), intravenous dripping, read-out: Plasma concentration Mean ± SD): 17900 ± 2040 ng/mL | concentration at 1 h ([4]; plasma, 1.00 h, 150 mg/kg intravenous dripping, read-out: Plasma concentration Mean ± SD): 18800 ± 3070 ng/mL | concentration at 3 h ([4]; plasma, 3.00 h, 150 mg/kg intravenous dripping, read-out: Plasma concentration Mean ± SD): 18300 ± 4530 ng/mL | concentration at 4 h ([4]; plasma, 4.00 h, 150 mg/kg intravenous dripping, read-out: Plasma concentration Mean ± SD): 285 ± 226 ng/mL | concentration at 5 h ([4]; plasma, 5.00 h, 150 mg/kg intravenous dripping, read-out: Plasma concentration Mean ± SD): 123 ± 34.8 ng/mL | concentration at 6 h ([4]; plasma, 6.00 h, 150 mg/kg intravenous dripping, read-out: Plasma concentration Mean ± SD): 57.8 ± 3.1 ng/mL | concentration at 8 h ([4]; plasma, 8.00 h, 150 mg/kg intravenous dripping, read-out: Plasma concentration Mean ± SD): 28.5 ± 9.52 ng/mL
